This passage reports IC50 and EC50 results from patent US9770446B2, “Piperidine urea derivatives” (MERCK PATENT GMBH, priority 2013, dated 2017).

The target in assay [1] is T1, GST-tagged Tankyrase-1 (1023-1327 aa) (Homo sapiens, UniProt O95271).
T1 construct: GST-tagged Tankyrase-1 (1023-1327 aa)
Put plainly: Tankyrase 1 autoparsylation HTRF enzyme assay. The assay is classed as biochemical. Conditions: read-out: IC50 TNKS1 enzyme assay. The procedure:
(§1) Biochemical activity testing of Tankyrase 1 and 2: Autoparsylation assay
(§2) The autoparsylation assay is run in two steps: the enzymatic reaction in which GST-tagged Tankyrase-1, resp Tankyrase-2 transferred biotinylated ADP-ribose to itself from biotinylated NAD as co-substrate and the detection reaction where a time resolved FRET between cryptate labelled anti-GST bound to the GST tag of the enzyme and Xlent® labelled-streptavidin bound the biotin-parsylation residue is analysed. The autoparsylation activity was detectable directly via the increase in HTRF signal.
(§3) The autoparsylation assay is performed as 384-well HTRF® (Cisbio, Codolet, France) assay format in Greiner low volume nb 384-well microtiter plates and is used for high throughput screen. 250 nM GST-tagged Tankyrase-1 (1023-1327 aa), respectively about 250 nM GST-tagged Tankyrase-2 (873-1166 aa) and 5 μM bio-NAD (Biolog, Life science Inst., Bremen, Germany) as co-substrate are incubated in a total volume of 5 μl (50 mM HEPES, 4 mM Mg-chloride, 0.05% Pluronic F-68, 1.4 mM DTT, 0.5% DMSO, pH 7.7) in the absence or presence of the test compound (10 dilution concentrations) for 90 min at 30° C. The reaction is stopped by the addition of 1 μl 50 mM EDTA solution. 2 μl of the detection solution (1.6 μM SA-Xlent® (Cisbio, Codolet, France), 7.4 nM Anti-GST-K® (Eu-labelled anti-GST, Cisbio, Codolet, France) in 50 mM HEPES, 800 mM KF, 0.1% BSA, 20 mM EDTA, 0.1% CHAPS, pH 7.0) are added. After 1 h incubation at room temperature the HTRF is measured with an Envision multimode reader (Perkin Elmer LAS Germany GmbH) at excitation wavelength 340 nm (laser mode) and emission wavelengths 615 nm and 665 nm. The ratio of the emission signals is determined. The full value used is the inhibitor-free reaction. The pharmacological zero value used is XAV-939 (Tocris) in a final concentration of 5 μM. The inhibitory values (IC50) are determined using either the program Symyx Assay Explorer® or Condosseo® from GeneData.

Assay [2] has as its target T2, GST-tagged Tankyrase-2 (873-1166 aa) (Homo sapiens, UniProt Q9H2K2).
T2 construct: GST-tagged Tankyrase-2 (873-1166 aa)
Put plainly: Tankyrase 2 autoparsylation HTRF enzyme assay. The assay is classed as biochemical. The following applies: read-out: IC50 TNKS2 enzyme assay. The procedure:
as §1, §2, §3
On the technique in general: TR-FRET usually uses a lanthanide donor and a delayed reading to cut background.

A further assay concerns Tankyrase. The assay is described as follows: Cellular inhibition of Tankyrase: Axin2 level in DLD1 cells (Luminex). It counts as cell-based. The following applies: 24 hours, Axin2 increase, read-out: EC50 [M] TNKS cellular assay. The procedure:
Measurement of Cellular Inhibition of Tankyrase
Since Tankyrases have been described to modulate cellular level of Axin2 (Huang et al., 2009; Nature) the increase of Axin2 level is used as read-out for determination of cellular inhibition of Tankyrases in a Luminex based assay.
Cells of the colon carcinoma cell line DLD1 are plated in 96 well plates with 1.5×10^4 cells per well. Next day, cells are treated with a serial dilution of test compound in seven steps as triplicates with a final DMSO concentration of 0.3%. After 24 hours, cells are lysed in lysis buffer (20 mM Tris/HCl pH 8.0, 150 mM NaCl, 1% NP40, 10% Glycerol) and lysates are cleared by centrifugation through a 96 well filter plate (0.65 μm). Axin2 protein is isolated from cell lysates by incubation with a monoclonal anti-Axin2 antibody (R&D Systems #MAB6078) that is bound to fluorescent carboxybeads. Then, bound Axin2 is specifically detected with a polyclonal anti-Axin2 antibody (Cell Signaling #2151) and an appropriate PE-fluorescent secondary antibody. The amount of isolated Axin2 protein is determined in a Luminex^200 machine (Luminex Corporation) according to the manufacturer's instruction by counting 100 events per well. Inhibition of Tankyrase by test compounds results in higher levels of Axin2 which directly correlates with an increase of detectable fluorescence. As controls cells are treated with solvent alone (neutral control) and with a Tankyrase reference inhibitor IWR-2 (3E-06 M) which refers as control for maximum increase of Axin2. For analysis, the obtained data are normalized against the untreated solvent control and fitted for determination of the EC50 values using the Assay Explorer software (Accelrys).

The target in assay [3] is T3, GST-tagged Tnks-1 (1023-1327 aa) (Homo sapiens, UniProt O95271).
T3 construct: GST-tagged Tnks-1 (1023-1327 aa, prepared in-house); made in house
T3 sequence (O95271 1023-1327): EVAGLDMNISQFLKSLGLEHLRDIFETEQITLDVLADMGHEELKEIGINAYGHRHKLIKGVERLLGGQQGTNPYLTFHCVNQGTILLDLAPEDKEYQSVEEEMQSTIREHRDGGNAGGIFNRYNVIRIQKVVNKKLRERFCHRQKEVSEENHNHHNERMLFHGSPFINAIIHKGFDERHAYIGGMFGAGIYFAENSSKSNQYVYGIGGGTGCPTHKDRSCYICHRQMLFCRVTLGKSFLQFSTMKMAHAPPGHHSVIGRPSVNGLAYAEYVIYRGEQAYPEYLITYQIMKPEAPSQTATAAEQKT
The assay is described as follows: TNKS1 activity ELISA (autoparsylation assay). The assay is classed as biochemical. Here is the method:
(§4) Description of the TNKS1 and TNKS2 ELISA Assay
(§5) Biochemical Activity Testing of TNKS 1 and 2: Activity ELISA (Autoparsylation Assay)
(§6) For analysis of autoparsylation activity of TNKS 1 and 2 an activity ELISA iss performed: In the first step GST tagged TNKS is captured on a Glutathione coated plate. Then the activity assay with biotinylated NAD is performed in the absence/presence of the compounds. During the enzymatic reaction GST tagged TNKS transfers biotinylated ADP-ribose to itself from biotinylated NAD as co-substrate. For the detection streptavidin-HRP conjugate is added that binds to the biotinylated TNKS and is thereby captured to the plates. The amount of biotinylated resp. autoparsylated TNKS is detected with a luminescence substrate for HRP. The level of the luminescence signal correlates directly with the amount of autoparsylated TNKS and therefore with activity of TNKS.
(§7) The activity ELISA is performed in 384 well Glutathione coated microtiter plates (Express capture Glutathione coated plate, Biocat, Heidelberg, Germany). The plates are pre-equilibrated with PBS. Then the plates are incubated with 50 μl 20 ng/well GST-tagged Tnks-1 (1023-1327 aa, prepared in-house), respectively GST-tagged Tnks-2 (873-1166 aa, prepared in-house) in assay buffer (50 mM HEPES, 4 mM Mg-chloride, 0.05% Pluronic F-68, 2 mM DTT, pH 7.7) overnight at 4° C. The plates are washed 3 times with PBS-Tween-20. The wells are blocked by incubation at room temperature for 20 minutes with 50 μl blocking buffer (PBS, 0.05% Tween-20, 0.5% BSA). Afterwards the plates are washed 3 times with PBS-Tween-20. The enzymatic reaction is performed in 50 μl reaction solution (50 mM HEPES, 4 mM Mg-chloride, 0.05% Pluronic F-68, 1.4 mM DTT, 0.5% DMSO, pH 7.7) with 10 μM bio-NAD (Biolog, Life science Inst., Bremen, Germany) as co-substrate in the absence or presence of the test compound (10 dilution concentrations) for 1 hour at 30° C. The reaction is stopped by 3 times washing with PBS-Tween20. For the detection 50 μl of 20 ng/μl Streptavidin, HRP conjugate (MoBiTec, Göttingen, Germany) in PBS/0.05% Tween-20/0.01% BSA are added and the plates are incubated for 30 minutes at room temperature. After three times washing with PBS-Tween-20 50 μl of SuperSignal ELISA Femto Maximum sensitivity substrate solution (ThermoFisherScientific (Pierce), Bonn, Germany) are added. Following a 1 minute incubation at room temperature luminescence signals are measured with an Envision multimode reader (Perkin Elmer LAS Germany GmbH) at 700 nm. The full value used is the inhibitor-free reaction. The pharmacological zero value used is XAV-939 (Tocris) in a final concentration of 5 μM. The inhibitory values (IC50) are determined using either the program Symyx Assay Explorer® or Condosseo® from GeneData.
A general note: ELISA stands for enzyme-linked immunosorbent assay.

Assay [4] addresses T4, GST-tagged Tnks-2 (873-1166 aa) (Homo sapiens, UniProt Q9H2K2).
T4 construct: GST-tagged Tnks-2 (873-1166 aa, prepared in-house); made in house
The assay is described as follows: TNKS2 activity ELISA (autoparsylation assay). The assay is classed as biochemical. Here is the method: as §4, §5, §6, §7

T2 sequence (Q9H2K2 873-1166): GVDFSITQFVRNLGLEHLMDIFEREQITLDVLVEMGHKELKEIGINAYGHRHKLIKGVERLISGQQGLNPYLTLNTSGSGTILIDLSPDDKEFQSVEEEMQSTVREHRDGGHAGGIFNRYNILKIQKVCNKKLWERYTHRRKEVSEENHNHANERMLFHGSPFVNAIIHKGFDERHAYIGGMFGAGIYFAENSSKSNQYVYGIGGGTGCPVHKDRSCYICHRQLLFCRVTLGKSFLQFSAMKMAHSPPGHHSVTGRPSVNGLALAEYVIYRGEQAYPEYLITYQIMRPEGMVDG
T4 sequence (Q9H2K2 873-1166): as above
T1 sequence (O95271 1023-1327): as the sequence (O95271 1023-1327) above

`O=C(c1ccc(Cl)cc1)C1CCN(C(=O)N2CCc3ccccc32)CC1` [Compound A21, [4-(4-chloro-benzoyl)-piperidin-1-yl]-(2,3-dihydro-indol-1-yl)-methanone]: the half-inhibitory concentration (IC50) in assay [1] is 300 to 3000 nM; in assay [2], 300 to 3000 nM; in assay [3] it was 300 to 3000 nM; in assay [4], less than 300 nM. Moreover, the EC50 in the assay on Tankyrase lay in the range of 3e-06 to 5e-05 M.
Turning to `COc1ccc(N(C)C(=O)N2CCC(C(=O)c3ccccc3)CC2)cn1` [Compound A44, 4-benzoyl-N-(6-methoxy-3-pyridyl)-N-methyl-piperidine-1-carboxamide], in the assay on Tankyrase, the EC50 is 3e-07 to 3e-06 M. In addition, the IC50 in assay [3] and in assay [4] was less than 300 nM each time.
Take `O=C(c1cccc(F)c1)C1CCN(C(=O)N2CCc3ccccc32)CC1` [Compound A19, (2,3-dihydro-indol-1-yl)-[4-(3-fluoro-benzoyl)-piperidin-1-yl]-methanone]: the IC50 was 300 to 3000 nM in assay [1], 300 to 3000 nM in assay [2], less than 300 nM in assay [3] and less than 300 nM in assay [4]. In the assay with Tankyrase, the concentration giving a half-maximal response (EC50) lay within 3e-06 to 5e-05 M.
On to `COc1ccc(N(C)C(=O)N2CCC(C(=O)c3ccc(OC)c(C)c3)CC2)cc1` [Compound A23, 4-(4-methoxy-3-methyl-benzoyl)-piperidine-1-carboxylic acid (4-methoxy-phenyl)-methyl-amide], for which the IC50 in assay [1] is less than 300 nM; in assay [2] it was 300 to 3000 nM; in assay [3], less than 300 nM; in assay [4] it was less than 300 nM. Further, the EC50 with Tankyrase was less than 3e-07 M.
Turning to `COc1ccc(N(C)C(=O)N2CCC(C(=O)c3ccc(Cl)cc3)CC2)cc1` [Compound A9, 4-(4-chloro-benzoyl)-piperidine-1-carboxylic acid (4-methoxy-phenyl)-methylamide], the half-maximal inhibitory concentration (IC50) is less than 300 nM in assay [1], 300 to 3000 nM in assay [2], less than 300 nM in assay [3] and less than 300 nM in assay [4]. Further, in the assay with Tankyrase, the EC50 was in the range of 3e-07 to 3e-06 M.
For the compound `CN(C(=O)N1CCC(C(=O)c2ccccc2)CC1)c1cccc(F)c1` [Compound A12, 4-benzoyl-piperidine-1-carboxylic acid (3-fluoro-phenyl)-methyl-amide], the half-maximal inhibitory concentration (IC50) is 300 to 3000 nM in assay [1], 300 to 3000 nM in assay [2], less than 300 nM in assay [3] and less than 300 nM in assay [4]. Further, the EC50 with Tankyrase lay in the range of 3e-07 to 3e-06 M.
Take `COc1ccc(N(C)C(=O)N2CCC(C(=O)c3cccc(F)c3)CC2)cn1` [Compound A50, 4-(3-fluorobenzoyl)-N-(6-methoxy-3-pyridyl)-N-methyl-piperidine-1-carboxamide]: the half-inhibitory concentration (IC50) in assay [1] was 300 to 3000 nM; in assay [2], 300 to 3000 nM; in assay [3], less than 300 nM; in assay [4], less than 300 nM. Further, the EC50 in the assay on Tankyrase lay within 3e-07 to 3e-06 M.
Consider `CN(C(=O)N1CCC(C(=O)c2ccc(-c3cnn(CCN4CCCC4)c3)cc2)CC1)c1ccc(-c2cnn(CCN3CCCC3)c2)cc1` [Compound A37, 4-{4-[1-(2-pyrrolidin-1-yl-ethyl)-1H-pyrazol-4-yl]-benzoyl}-piperidine-1-carboxylic acid methyl-{4-[1-(2-pyrrolidin-1-yl-ethyl)-1H-pyrazol-4-yl]-phenyl}-amide], for which the half-maximal effective concentration (EC50) in the assay on Tankyrase fell in the range of 3e-07 to 3e-06 M. The half-maximal inhibitory concentration (IC50) in assay [3] and in assay [4] was less than 300 nM in each case.
On to `CCn1cc(-c2ccc(C(=O)C3CCN(C(=O)N(C)c4ccc(OC)nc4)CC3)cc2)cn1` [Compound A48, 4-[4-(1-ethylpyrazol-4-yl)benzoyl]-N-(6-methoxy-3-pyridyl)-N-methyl-piperidine-1-carboxamide], for which the EC50 with Tankyrase was 3e-07 to 3e-06 M. Besides, the IC50 in assay [3] and in assay [4] was less than 300 nM each time.
On to `COc1ccc(N(C)C(=O)N2CCC(C(=O)c3ccc(OC)nc3)CC2)cc1` [Compound A53, N-(4-methoxyphenyl)-4-(6-methoxypyridine-3-carbonyl)-N-methyl-piperidine-1-carboxamide], for which, in the assay on Tankyrase, the EC50 lay within 3e-07 to 3e-06 M. Besides, the half-inhibitory concentration (IC50) in assay [3] and in assay [4] was less than 300 nM in each case.
Turning to `COc1ccc(N(C)C(=O)N2CCC(C(=O)c3ccc(OC)c(C)c3)CC2)cn1` [Compound A52, 4-(4-methoxy-3-methyl-benzoyl)-N-(6-methoxy-3-pyridyl)-N-methyl-piperidine-1-carboxamide], the EC50 in the assay with Tankyrase is less than 3e-07 M. Moreover, the IC50 in assay [3] and in assay [4] was less than 300 nM throughout.
`CCn1cc(-c2ccc(C(=O)C3CCN(C(=O)N(C)c4ccc(-c5cnn(CC)c5)cc4)CC3)cc2)cn1` [Compound A57, 4-[4-(1-Ethyl-1H-pyrazol-4-yl)-benzoyl]-piperidine-1-carboxylic acid [4-(1-ethyl-1H-pyrazol-4-yl)-phenyl]-methyl-amide]: the concentration giving a half-maximal response (EC50) in the assay on Tankyrase was less than 3e-07 M. Also, the half-maximal inhibitory concentration (IC50) in assay [3] and in assay [4] was less than 300 nM each time.
Regarding `CCN(C(=O)N1CCC(C(=O)c2ccc(OC)nc2)CC1)c1ccc(OC)cc1` [Compound A43, N-ethyl-N-(4-methoxyphenyl)-4-(6-methoxypyridine-3-carbonyl)piperidine-1-carboxamide], the half-maximal effective concentration (EC50) in the assay with Tankyrase was less than 3e-07 M. In addition, the IC50 in assay [3] and in assay [4] was less than 300 nM each time.

Usually IC50 stands for the concentration that gives 50% inhibition. One may read the EC50 as the concentration needed to bring the measured effect to its halfway point.
